{"source": "ChEMBL document CHEMBL4825681", "about": "“Iron-Catalyzed Skeletal Conversion of Lathyrane to Premyrsinane Euphorbia Diterpenes and Their Cytotoxic Activities” (J Nat Prod, 2021)", "data": [{"system": "4T1", "assay": "Cytotoxicity against mouse 4T1 cells assessed as reduction in cell viability incubated for 24 hrs by MTT assay", "assay_type": "functional, cell-based", "conditions": "4T1, 24 h", "units": {"IC50": "nM"}, "values": [{"smiles": "CC(=O)O[C@@H]1[C@H]2[C@@H](OC(=O)c3ccccc3)[C@@H](C)C[C@]2(OC(C)=O)C(=O)[C@@H](C)[C@@H]2[C@@H]3[C@H](CC[C@]21C)C3(C)C", "IC50": 2500}, {"smiles": "CC(=O)O[C@@H]1[C@H]2[C@@H](OC(=O)c3ccccc3)[C@@H](C)C[C@]2(OC(C)=O)C(=O)[C@H](C)[C@@H]2[C@@H]3[C@H](CC[C@]21C)C3(C)C", "IC50": 8200}, {"smiles": "C=C1CC[C@H]2[C@@H](/C=C(\\C)C(=O)[C@@]3(OC(C)=O)C[C@H](C)[C@H](OC(=O)c4ccccc4)[C@@H]3[C@H]1OC(C)=O)C2(C)C", "IC50": "> 10000"}, {"smiles": "CC(=O)O[C@H]1C(=O)[C@@]2(C)[C@H]([C@H](OC(=O)c3ccccc3)[C@]3(O)C[C@H](OC(=O)[C@H](O)[C@@H](NC(=O)c4ccccc4)c4ccccc4)C(C)=C1C3(C)C)[C@]1(OC(C)=O)CO[C@@H]1C[C@@H]2O", "note": "[PACLITAXEL]", "IC50": 800}]}]}
